The test system of this data set is CCRIS mutagenicity, Ames/micronucleus/aberration tests. In words: CCRIS mutagenicity studies.
The mark [1] stands for this setting: Test System: AMES SALMONELLA TYPHIMURIUM, Strain/Indicator: TA98, Metabolic Activation: HAMSTER, LIVER, S-9, AROCLOR 1254 (10%), Method: PREINCUBATION
The mark [2] stands for this setting: Test System: AMES SALMONELLA TYPHIMURIUM, Strain/Indicator: TA98, Metabolic Activation: NONE, Method: PREINCUBATION
[3] abbreviates: Test System: AMES SALMONELLA TYPHIMURIUM, Strain/Indicator: TA98, Metabolic Activation: RAT, LIVER, S-9, AROCLOR 1254 (10%), Method: PREINCUBATION
[4] abbreviates: Test System: AMES SALMONELLA TYPHIMURIUM, Strain/Indicator: TA100, Metabolic Activation: HAMSTER, LIVER, S-9, AROCLOR 1254 (10%), Method: PREINCUBATION
The mark [5] stands for this setting: Test System: AMES SALMONELLA TYPHIMURIUM, Strain/Indicator: TA100, Metabolic Activation: NONE, Method: PREINCUBATION
Setting [6] is: Test System: AMES SALMONELLA TYPHIMURIUM, Strain/Indicator: TA100, Metabolic Activation: RAT, LIVER, S-9, AROCLOR 1254 (10%), Method: PREINCUBATION
[7] abbreviates: Test System: AMES SALMONELLA TYPHIMURIUM, Strain/Indicator: TA1535, Metabolic Activation: HAMSTER, LIVER, S-9, AROCLOR 1254 (10%), Method: PREINCUBATION
[8] abbreviates: Test System: AMES SALMONELLA TYPHIMURIUM, Strain/Indicator: TA1535, Metabolic Activation: NONE, Method: PREINCUBATION
[9] abbreviates: Test System: AMES SALMONELLA TYPHIMURIUM, Strain/Indicator: TA1535, Metabolic Activation: RAT, LIVER, S-9, AROCLOR 1254 (10%), Method: PREINCUBATION
[10] abbreviates: Test System: AMES SALMONELLA TYPHIMURIUM, Strain/Indicator: TA98, Metabolic Activation: NONE, Method: STANDARD PLATE.
[11] abbreviates: Test System: AMES SALMONELLA TYPHIMURIUM, Strain/Indicator: TA100, Metabolic Activation: NONE, Method: STANDARD PLATE.

The source made the active and inactive calls. No rule for the calls is given here.

Turning to `CCCCCCCCCCCC[S][Sn]([CH2]CCC)([CH2]CCC)[S]CCCCCCCCCCCC`, the mutagenic call (Test System: AMES SALMONELLA TYPHIMURIUM, Strain/Indicator: TA97, Metabolic Activation: HAMSTER, LIVER, S-9, AROCLOR 1254 (10%), Method: PREINCUBATION) was “inactive; negative”; the mutagenic call (Test System: AMES SALMONELLA TYPHIMURIUM, Strain/Indicator: TA97, Metabolic Activation: HAMSTER, LIVER, S-9, AROCLOR 1254 (30%), Method: PREINCUBATION) is “inactive; negative”; the mutagenic call (Test System: AMES SALMONELLA TYPHIMURIUM, Strain/Indicator: TA97, Metabolic Activation: NONE, Method: PREINCUBATION) is “inactive; negative”; the mutagenic call (Test System: AMES SALMONELLA TYPHIMURIUM, Strain/Indicator: TA97, Metabolic Activation: RAT, LIVER, S-9, AROCLOR 1254 (10%), Method: PREINCUBATION) is “inactive; negative”; the mutagenic call (Test System: AMES SALMONELLA TYPHIMURIUM, Strain/Indicator: TA97, Metabolic Activation: RAT, LIVER, S-9, AROCLOR 1254 (30%), Method: PREINCUBATION) was “inactive; negative”; the mutagenic call under setting [1] is “inactive; negative”. Moreover, the mutagenic call was “inactive; negative” (Test System: AMES SALMONELLA TYPHIMURIUM, Strain/Indicator: TA98, Metabolic Activation: HAMSTER, LIVER, S-9, AROCLOR 1254 (30%), Method: PREINCUBATION); “inactive; negative” under setting [2]; “inactive; negative” under setting [3]; “inactive; negative” (Test System: AMES SALMONELLA TYPHIMURIUM, Strain/Indicator: TA98, Metabolic Activation: RAT, LIVER, S-9, AROCLOR 1254 (30%), Method: PREINCUBATION); “inactive; negative” under setting [4]; “inactive; negative” (Test System: AMES SALMONELLA TYPHIMURIUM, Strain/Indicator: TA100, Metabolic Activation: HAMSTER, LIVER, S-9, AROCLOR 1254 (30%), Method: PREINCUBATION). Also, the mutagenic call is “inactive; negative” under setting [5]; “inactive; negative” under setting [6]; “inactive; negative” (Test System: AMES SALMONELLA TYPHIMURIUM, Strain/Indicator: TA100, Metabolic Activation: RAT, LIVER, S-9, AROCLOR 1254 (30%), Method: PREINCUBATION); “inactive; negative” under setting [7]; “inactive; negative” (Test System: AMES SALMONELLA TYPHIMURIUM, Strain/Indicator: TA1535, Metabolic Activation: HAMSTER, LIVER, S-9, AROCLOR 1254 (30%), Method: PREINCUBATION); “inactive; negative” under setting [8]. Also, the mutagenic call is “inactive; negative” under setting [9] and “inactive; negative” (Test System: AMES SALMONELLA TYPHIMURIUM, Strain/Indicator: TA1535, Metabolic Activation: RAT, LIVER, S-9, AROCLOR 1254 (30%), Method: PREINCUBATION).
Regarding `C=C(C)C1CC=C(C)C(O)C1` (stereo not given), the mutagenic call is “inactive; negative” under setting [1]; “inactive; negative” under setting [2]; “inactive; negative” under setting [3]; “inactive; negative” under setting [4]; “inactive; negative” under setting [5]; “inactive; negative” under setting [6]. The mutagenic call under setting [7] is “inactive; negative”; the mutagenic call under setting [8] is “inactive; negative”; the mutagenic call under setting [9] is “inactive; negative”; the mutagenic call (Test System: AMES SALMONELLA TYPHIMURIUM, Strain/Indicator: TA1537, Metabolic Activation: HAMSTER, LIVER, S-9, AROCLOR 1254 (10%), Method: PREINCUBATION) is “inactive; negative”; the mutagenic call (Test System: AMES SALMONELLA TYPHIMURIUM, Strain/Indicator: TA1537, Metabolic Activation: NONE, Method: PREINCUBATION) was “inactive; negative”; the mutagenic call (Test System: AMES SALMONELLA TYPHIMURIUM, Strain/Indicator: TA1537, Metabolic Activation: RAT, LIVER, S-9, AROCLOR 1254 (10%), Method: PREINCUBATION) was “inactive; negative”.
Take `CCOP(=S)(OCC)SCCl`: the mutagenic call reads like this: (Test System: AMES SALMONELLA TYPHIMURIUM, Strain/Indicator: TA98, Metabolic Activation: NONE) “inactive; negative”; under setting [10], “inactive; negative”; (Test System: AMES SALMONELLA TYPHIMURIUM, Strain/Indicator: TA98, Metabolic Activation: RAT, LIVER, S-9, SODIUM PHENOBARBITAL, Method: STANDARD PLATE) “inactive; negative”; (Test System: AMES SALMONELLA TYPHIMURIUM, Strain/Indicator: TA98, Metabolic Activation: S-9) “inactive; negative”; (Test System: AMES SALMONELLA TYPHIMURIUM, Strain/Indicator: TA100, Metabolic Activation: NONE) “inactive; negative”; under setting [11], “inactive; negative”. The mutagenic call by setting is: (Test System: AMES SALMONELLA TYPHIMURIUM, Strain/Indicator: TA100, Metabolic Activation: RAT, LIVER, S-9, SODIUM PHENOBARBITAL, Method: STANDARD PLATE) “inactive; negative”; (Test System: AMES SALMONELLA TYPHIMURIUM, Strain/Indicator: TA100, Metabolic Activation: S-9) “inactive; negative”; (Test System: E. COLI, Strain/Indicator: WP2, Metabolic Activation: NONE) “inactive; negative”; (Test System: E. COLI, Strain/Indicator: WP2, Metabolic Activation: RAT, LIVER, S-9, SODIUM PHENOBARBITAL, Method: STANDARD PLATE) “inactive; negative”; (Test System: E. COLI, Strain/Indicator: WP2, Metabolic Activation: S-9) “inactive; negative”; (Test System: E. COLI, Strain/Indicator: WP2 UVRA, Metabolic Activation: NONE) “inactive; negative”. Besides, the mutagenic call was “inactive; negative” (Test System: E. COLI, Strain/Indicator: WP2 UVRA, Metabolic Activation: RAT, LIVER, S-9, SODIUM PHENOBARBITAL, Method: STANDARD PLATE) and “inactive; negative” (Test System: E. COLI, Strain/Indicator: WP2 UVRA, Metabolic Activation: S-9).
In the case of `CCc1cc(-c2ccccc2)ccc1N`, the mutagenic call is “inactive; negative” under setting [10]; “active; positive” (Test System: AMES SALMONELLA TYPHIMURIUM, Strain/Indicator: TA98, Metabolic Activation: RAT LIVER S-9, AROCLOR, Method: STANDARD PLATE); “active; positive” under setting [11]; “active; positive” (Test System: AMES SALMONELLA TYPHIMURIUM, Strain/Indicator: TA100, Metabolic Activation: RAT LIVER S-9, AROCLOR, Method: STANDARD PLATE).
As to `CCCCCCCCCCCCCC(=O)N(OC(C)=O)c1ccc2c(c1)Cc1ccccc1-2`, the mutagenic call (Test System: UDS HUMAN FIBROBLASTS, Strain/Indicator: THY INCORP (NON-S-PHASE), Metabolic Activation: NONE, Method: AUTORADIOGRAPHY) is “active; positive”.
Consider `OCc1cc2ccc3cccc4ccc(c1)c2c34`, for which, for the setting “Test System: AMES SALMONELLA TYPHIMURIUM, Strain/Indicator: TA98, Metabolic Activation: HUMAN, LIVER, CYTOSOL, PAPS, Method: PREINCUBATION”, the mutagenic call was “active; positive”.
Regarding `O=c1c(O)c2c(c3c1ccc1[nH]c4c(ccc5ccccc54)cc13)O2`, the mutagenic call reads like this: (Test System: AMES SALMONELLA TYPHIMURIUM, Strain/Indicator: TA98, Metabolic Activation: RAT, LIVER, AROCLOR 1254, NADPH GENERATING SYSTEM, Method: STANDARD PLATE) “inactive; negative”; (Test System: AMES SALMONELLA TYPHIMURIUM, Strain/Indicator: TA100, Metabolic Activation: RAT, LIVER, AROCLOR 1254, NADPH GENERATING SYSTEM, Method: STANDARD PLATE) “inactive; negative”; (Test System: CHINESE HAMSTER V-79, Strain/Indicator: V-79/8-AZAGUANINE, Method: STANDARD PLATE) “inactive; negative”.

The values above are taken from PubChem BioAssay AID1259407 (Chemical Carcinogenesis Research Information System (CCRIS), 2018).
